Laboratory results published in patent US9085555B2, “Complement pathway modulators and uses thereof” (priority 2011, dated 2015).

These molecules were tested against Factor D (Homo sapiens (Human), UniProt P00746) (assay: biochemical). Settings: read-out: IC50.
Sequence of Factor D (P00746 26-253): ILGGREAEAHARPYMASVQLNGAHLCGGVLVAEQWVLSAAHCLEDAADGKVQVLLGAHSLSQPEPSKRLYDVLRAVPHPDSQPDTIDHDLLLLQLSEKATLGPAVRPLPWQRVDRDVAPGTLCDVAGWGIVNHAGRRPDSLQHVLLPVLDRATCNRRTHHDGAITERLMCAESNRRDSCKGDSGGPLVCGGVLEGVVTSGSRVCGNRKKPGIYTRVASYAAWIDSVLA
Format: biochemical
`CN(C)[C@@H]1CN(C(=O)Nc2cn(C(N)=O)c3ccccc23)[C@H](C(=O)NCc2cccc(Cl)c2F)[C@H]1F` [Example 189, (2R,3S,4R)-4-Dimethylamino-3-fluoro-pyrrolidine-1,2-dicarboxylic acid 1-[(1-carbamoyl-1H-indol-3-yl)-amide] 2-(3-chloro-2-fluoro-benzylamide)] gave an IC50 of 942 nM.
`NC(=O)n1cc(NC(=O)N2CC[C@@H](F)[C@H]2C(=O)NCc2cccc(Cl)c2F)c2ccccc21` [Example 190, (2R,3R)-3-Fluoro-pyrrolidine-1,2-dicarboxylic acid 1-[(1-carbamoyl-1H-indol-3-yl)-amide] 2-(3-chloro-2-fluoro-benzylamide)] gave an IC50 of 20 nM.
`C[C@@]1(C(=O)Nc2cccc(OC(F)(F)F)c2)CCCN1C(=O)Nc1cn(C(N)=O)c2ccccc12` [Example 192, (S)-2-Methyl-pyrrolidine-1,2-dicarboxylic acid 1-[(1-carbamoyl-1H-indol-3-yl)-amide] 2-[(3-trifluoromethoxy-phenyl)-amide]] showed an IC50 of 17800 nM.
Molecule `NC(=O)n1cc(NC(=O)N2C[C@H](F)C[C@H]2C(=O)Nc2cncc(Cl)c2)c2ccccc21` [Example 193, (2S,4R)-4-Fluoro-pyrrolidine-1,2-dicarboxylic acid 1-[(1-carbamoyl-1H-indol-3-yl)-amide] 2-[(5-chloro-pyridin-3-yl)-amide]] has an IC50 of 160 nM.
Molecule `NC(=O)n1cc(NC(=O)N2C[C@H](F)C[C@H]2C(=O)Nc2cncc(Br)c2)c2ccccc21` [Example 194, (2S,4R)-4-Fluoro-pyrrolidine-1,2-dicarboxylic acid 1-[(1-carbamoyl-1H-indol-3-yl)-amide] 2-[(5-bromo-pyridin-3-yl)-amide]] has an IC50 of 93 nM.
In the case of `NC(=O)n1cc(NC(=O)N2[C@@H]3C[C@@H]3C[C@H]2C(=O)NCc2cccc(F)c2F)c2ccccc21` [Example 195, (1R,3S,5R)-2-Aza-bicyclo[3.1.0]hexane-2,3-dicarboxylic acid 2-[(1-carbamoyl-1H-indol-3-yl)-amide] 3-(2,3-difluoro-benzylamide)], the IC50 is reported as 14 nM.
`NC(=O)n1cc(NC(=O)N2C[C@@](O)(CO)C[C@H]2C(=O)NCc2cccc(Cl)c2F)c2ccccc21` [Example 196, (2S,4R)-4-Hydroxy-4-hydroxymethyl-pyrrolidine-1,2-dicarboxylic acid 1-[(1-carbamoyl-1H-indol-3-yl)-amide] 2-(3-chloro-2-fluoro-benzylamide)] showed an IC50 of 700 nM.
Molecule `NC(=O)n1cc(NC(=O)N2C[C@H]3OC3[C@H]2C(=O)NCc2cccc(Cl)c2F)c2ccccc21` (stereo partly drawn) [Example 197, (1S,2S,5R)-6-Oxa-3-aza-bicyclo[3.1.0]hexane-2,3-dicarboxylic acid 3-[(1-carbamoyl-1H-indol-3-yl)-amide] 2-(3-chloro-2-fluoro-benzylamide)] has an IC50 of 100 nM.
`COC(=O)c1cc(Br)cc(NC(=O)[C@@H]2SCCN2C(=O)Nc2cn(C(N)=O)c3ccccc23)c1` [Example 198, 3-Bromo-5-{[(S)-3-(1-carbamoyl-1H-indol-3-ylcarbamoyl)-thiazolidine-2-carbonyl]-amino}-benzoic acid methyl ester] showed an IC50 of 357 nM.
In the case of `Cn1nc(-c2ccccc2)cc1NC(=O)[C@@H]1CCCN1C(=O)Nc1cn(C(N)=O)c2ccccc12` [Example 199, (S)-Pyrrolidine-1,2-dicarboxylic acid 1-[(1-carbamoyl-1H-indol-3-yl)-amide] 2-[(2-methyl-5-phenyl-2H-pyrazol-3-yl)-amide]], the IC50 is reported as 8650 nM.
Work on `COC(=O)[C@H]1C[C@@H](C(=O)NCc2cccc(Cl)c2F)N(C(=O)Nc2cn(C(N)=O)c3ccccc23)C1` [Example 200, (3S,5S)-1-(1-Carbamoyl-1H-indol-3-ylcarbamoyl)-5-(3-chloro-2-fluoro-benzylcarbamoyl)-pyrrolidine-3-carboxylic acid methyl ester] yielded an IC50 of 25 nM.
With `NC(=O)n1cc(NC(=O)N2C[C@](O)(CO)C[C@H]2C(=O)NCc2cccc(Cl)c2F)c2ccccc21` [Example 202, (2S,4S)-4-Hydroxy-4-hydroxymethyl-pyrrolidine-1,2-dicarboxylic acid 1-[(1-carbamoyl-1H-indol-3-yl)-amide] 2-(3-chloro-2-fluoro-benzylamide)] the IC50 was 450 nM.
For `NC(=O)n1cc(NC(=O)N2[C@@H]3C[C@@H]3C[C@H]2C(=O)N[C@H](CO)c2cccc(Cl)c2F)c2ccccc21` [Example 203, (1R,3S,5R)-2-Aza-bicyclo[3.1.0]hexane-2,3-dicarboxylic acid 2-[(1-carbamoyl-1H-indol-3-yl)-amide] 3-{[(S)-1-(3-chloro-2-fluoro-phenyl)-2-hydroxy-ethyl]-amide}], the IC50 was 6 nM.
`CO[C@H]1[C@@H](C(=O)NCc2cccc(Cl)c2F)N(C(=O)Nc2cn(C(N)=O)c3ccccc23)C[C@@H]1F` [Example 204, (2S,3S,4S)-4-Fluoro-3-methoxy-pyrrolidine-1,2-dicarboxylic acid 1-[(1-carbamoyl-1H-indol-3-yl)-amide] 2-(3-chloro-2-fluoro-benzylamide)] was tested, and the IC50 was 7 nM.
Work on `C[C@@]1(F)C[C@@H](C(=O)NCc2cccc(Cl)c2F)N(C(=O)Nc2cn(C(N)=O)c3ccccc23)C1` [Example 205, (2S,4R)-4-Fluoro-4-methyl-pyrrolidine-1,2-dicarboxylic acid 1-[(1-carbamoyl-1H-indol-3-yl)-amide] 2-(3-chloro-2-fluoro-benzylamide)] yielded an IC50 of 14 nM.
For `CC(=O)N[C@H]1[C@@H](C(=O)NCc2cccc(Cl)c2F)N(C(=O)Nc2cn(C(N)=O)c3ccccc23)C[C@@H]1F` [Example 206, (2S,3S,4S)-3-Acetylamino-4-fluoro-pyrrolidine-1,2-dicarboxylic acid 1-[(1-carbamoyl-1H-indol-3-yl)-amide] 2-(3-chloro-2-fluoro-benzylamide)], the IC50 was 187 nM.
In the case of `NC(=O)n1cc(NC(=O)N2C[C@@H]3C[C@@H]3[C@H]2C(=O)N[C@H](CO)c2cccc(Cl)c2F)c2ccccc21` [Example 207, (1S,2S,5R)-3-Azabicyclo[3.1.0]hexane-2,3-dicarboxylic acid 3-[(1-carbamoyl-1H-indol-3-yl)-amide] 2-{[(S)-1-(3-chloro-2-fluoro-phenyl)-2-hydroxy-ethyl]-amide}], the IC50 is reported as 321 nM.
`NC(=O)n1cc(NC(=O)N2CC[C@H](F)[C@H]2C(=O)NCc2cccc(Cl)c2F)c2ccccc21` [Example 208, (2R,3S)-3-Fluoro-pyrrolidine-1,2-dicarboxylic acid 1-[(1-carbamoyl-1H-indol-3-yl)-amide] 2-(3-chloro-2-fluoro-benzylamide)] gave an IC50 of 29 nM.
Molecule `NC(=O)n1cc(NC(=O)N2C[C@](F)(CN3CCOCC3)C[C@H]2C(=O)NCc2cccc(Cl)c2F)c2ccccc21` [Example 209, (2S,4R)-4-Fluoro-morpholin-4-ylmethyl-pyrrolidine-1,2-dicarboxylic acid 1-[(1-carbamoyl-1H-indol-3-yl)-amide] 2-(3-chloro-2-fluoro-benzylamide)] has an IC50 of 1900 nM.
Molecule `NC(=O)n1cc(NC(=O)N2C[C@H]3C[C@H]3[C@H]2C(=O)NCc2cccc(Cl)c2F)c2ccccc21` [Example 210, (1R,2S,5S)-3-Aza-bicyclo[3.1.0]hexane-2,3-dicarboxylic acid 3-[(1-carbamoyl-1H-indol-3-yl)-amide] 2-(3-chloro-2-fluoro-benzylamide)] has an IC50 of 22 nM.
With `CC(=O)N[C@@H]1CN(C(=O)Nc2cn(C(N)=O)c3ccccc23)[C@H](C(=O)NCc2cccc(Cl)c2F)[C@H]1F` [Example 211, (2R,3S,4R)-4-Acetylamino-3-fluoro-pyrrolidine-1,2-dicarboxylic acid 1-[(1-carbamoyl-1H-indol-3-yl)-amide] 2-(3-chloro-2-fluoro-benzylamide)] the IC50 was 1320 nM.
In the case of `NC(=O)n1cc(NC(=O)N2C[C@H]3C[C@H]3[C@H]2C(=O)N[C@H](CO)c2cccc(Cl)c2F)c2ccccc21` [Example 212, (1R,2S,5S)-3-Azabicyclo[3.1.0]hexane-2,3-dicarboxylic acid 3-[(1-carbamoyl-1H-indol-3-yl)-amide] 2-{[(S)-1-(3-chloro-2-fluoro-phenyl)-2-hydroxy-ethyl]-amide}], the IC50 is reported as 10 nM.
Molecule `NC(=O)n1cc(NC(=O)N2CC[C@@H](O)[C@H]2C(=O)NCc2cccc(Cl)c2F)c2ccccc21` [Example 213, (2S,3R)-3-Hydroxy-pyrrolidine-1,2-dicarboxylic acid 1-[(1-carbamoyl-1H-indol-3-yl)-amide] 2-(3-chloro-2-fluoro-benzylamide)] has an IC50 of 12 nM.
`COC[C@@]12C[C@@H]1N(C(=O)Nc1cn(C(N)=O)c3ccccc13)[C@H](C(=O)NCc1cccc(Cl)c1F)C2` [Example 214, (1S,3S,5R)-5-Methoxymethyl-2-aza-bicyclo[3.1.0]hexane-2,3-dicarboxylic acid 2-[(1-carbamoyl-1H-indol-3-yl)-amide] 3-(3-chloro-2-fluoro-benzylamide)] was tested, and the IC50 was 1570 nM.
`NC(=O)n1cc(NC(=O)N2C[C@H](F)C[C@H]2C(=O)NCc2cncc(F)c2)c2ccccc21` [Example 215, (2S,4R)-4-Fluoro-pyrrolidine-1,2-dicarboxylic acid 1-[(1-carbamoyl-1H-indol-3-yl)-amide] 2-[(5-fluoro-pyridin-3-ylmethyl)-amide]] showed an IC50 of 386 nM.
For `COc1ccc2c(NC(=O)N3C4CC4C[C@H]3C(=O)NCc3cccc(Cl)c3F)cn(C(N)=O)c2c1` (stereo partly drawn) [Example 216, (1R,3S,5R)-2-Aza-bicyclo[3.1.0]hexane-2,3-dicarboxylic acid 2-[(1-carbamoyl-6-methoxy-1H-indol-3-yl)-amide] 3-(3-chloro-2-fluoro-benzylamide)], the IC50 was 65 nM.
`NC(=O)n1cc(NC(=O)N2[C@@H]3C[C@@H]3C[C@H]2C(=O)N[C@H](CO)c2cccc(Br)c2)c2ccccc21` [Example 217, (1R,3S,5R)-2-Azabicyclo[3.1.0]hexane-2,3-dicarboxylic acid 3-{[(S)-1-(3-bromo-phenyl)-2-hydroxy-ethyl]-amide} 2-[(1-carbamoyl-1H-indol-3-yl)-amide]] was tested, and the IC50 was 41 nM.
`COC(=O)c1cccc(NC(=O)[C@@H]2CCCN2C(=O)Nc2cn(C(N)=O)c3ccccc23)c1` [Example 219, 3-{[(S)-1-(1-Carbamoyl-1H-indol-3-ylcarbamoyl)-pyrrolidine-2-carbonyl]-amino}-benzoic acid methyl ester] gave an IC50 of 1850 nM.
Molecule `NC(=O)n1cc(NC(=O)N2CCCC[C@H]2C(=O)NCc2cccc(Cl)c2F)c2ccccc21` [Example 220, (S)-Piperidine-1,2-dicarboxylic acid 1-[(1-carbamoyl-1H-indol-3-yl)-amide] 2-(3-chloro-2-fluoro-benzylamide)] has an IC50 of 233 nM.
